Molecular target: T1, Calmodulin derived from bovine (Bos taurus, UniProt P62157)
T1 construct: purchased Sigma
Experiment: Tension and elasticity change of calmodulin film detected by mechanochemical sensor (Example 1)
Type: binding
Details: FIG. 1; for isotropic tension of the calmodulin film: 10 mM Hepes buffer pH7.4 containing 0.1 M NaCl, flow 0.1 to 0.2 mL/min
Method: Calmodulin derived from bovine (Sigma) was dissolved into purified water at a concentration of 2 mg/ml. This solution was sprayed under dry air using an electrospry device described in WO 2002-511792 or an immobilzing device described in Japanese Patent Publication No. 2003-136005. The solution was permeated through a mask with holes of 400 μm in length and 800 μm in width, and then a film was prepared on 1.2% polyvinylpyrrolidone using an electrospray method (the EDS method). The resulting film was placed on an apparatus having a mechanochemical sensor which was described in WO 2002-503332 or U.S. Pat. Publication No. 6,033,913, and it was immersed into 10 mM Hepes buffer solution pH7.4 (hereinafter referred to as “the buffer solution”) containing 0.1 M NaCl. The buffer solution was passed through the film existing on the detecting apparatus at the flow rate of 0.1 to 0.2 mL/min, in order to stabilize the tension of the sample film. Thereafter CaCl2 solution dissolved in said buffer solution was passed through at the same flow rate to detect changes in tension and elasticity (FIG. 1).
A place where the horizontal line (indicating the initial state) uprises means a point where tension is given to the sample film, and compliance is detected where the line oscillates. […] Meanwhile, for example, following review can be refereed to the conformational change of calmodulin, (Vetter S. W. and Leclerc, E. (2003). Novel aspects of calmodulin target recognition and activation. Eur. J. Biochem. 270, 404-414).

Row | isotropic tension of the calmodulin film | reversibility of the effect on the film when restored by the buffer solution (buffer solution passed after CaCl2) | SMILES
1 | remarkably increases | reversible | [Ca+2].[Cl-].[Cl-] [CaCl2]
2 | further decreases | – | O=C(O)CN(CCN(CC(=O)O)CC(=O)O)CC(=O)O [EDTA]

Source: patent US20080115593A1, “Method for Detecting Conformational Change of Calmodulin, a Method for Screening a Substance Having an Activity that Affects to Conformational Change of Calmodulin” (FUENCE CO., LTD., priority 2004, published 2008)
